This is an account of results in article PMC7180728, “Novel Anthraquinone Compounds Inhibit Colon Cancer Cell Proliferation via the Reactive Oxygen Species/JNK Pathway” (Molecules, 2020).

Common to all, as to type: cell-based, human
For data set [1], the system named is HCT116 cells. In words: MTT cell viability with or without SP600125. The conditions noted are these: 8a alone, 24 h, compared with the control. How it is done: Furthermore, to further investigate whether activation of phosphorylated JNK affects cell viability, HCT116 was co-treated with 8a and SP600125 (JNK inhibitor), and the effect of phosphorylated JNK inactivation on HCT116 cell activity was examined by MTT. […] Following co-treatment with 8a and SP600126, the rate cell viability was 55%. The inhibitory proliferation activty of 8a were partially weakened by the usage of 5 μM Sp600125.
Figure 9 The effect of 8a treatment on phosphorylated JNK and JNK expression levels. (A) Western blot analysis of phosphorylated JNK and JNK expression levels of in HCT116 cells treated with 20 μg/mL 8a for time-periods; (B) The expression levels of the phospho-JNK proteins were determined after treatment of HCT116 cells with 20 μg/mL 8a with or without NAC. Data represent the mean ± standard deviation of three independent experiments; (C) Grayscale analysis of the relative protein level of phosphorylated JNK. Data represent the mean ± standard deviation of three independent experiments. * p < 0.05; (D) MTT assay of HCT116 cells viability following treatment with 8a and SP600125 for 24 h.

For data set [2], the system named is HCT116. In words: MTT cell proliferation assay, HCT116. The conditions noted are these: Homo sapiens, HCT-116, HCT116 colon cancer, 48 h. How it is done:
The effects of the synthesized amide anthraquinone derivatives on the proliferative activity of eight human cancerous cell lines (EC9706, MCF-7, SGC-7901, HepG2, QBC939, HeLa, HCT116 and SW480) in addition to two normal human cell lines (colorectal FHC and liver HL7702) were evaluated using the standard MTT assay.
The human esophageal cancer cell line EC9706 was obtained from Cancer Hospital and Institute by Prof. Ming Rong Wang, Chinese Academy Medical of Sciences. The human colorectal carcinoma cell lines HCT116 and SW480, hepatoma cell line HepG2, cervical carcinoma cell line HeLa, breast cancer cell line MCF-7, gastric cancer cell line SGC-7901, cholangiocarcinoma cell line QBC939, normal fetal colon cell line FHC and liver cell line HL-7702 were obtained from the Cell Bank of the Shanghai Chinese Academy of Sciences. All cells were cultured in RPMI 1640 medium containing 100 U/mL penicillin and streptomycin and 10% fetal bovine serum and maintained at 37°C under a 5% CO2 atmosphere.
We analyzed the inhibitory effects of eight anthraquinone-amino acid derivatives on the proliferation of eight tumor cell lines and two normal cell lines in vitro using MTT assays. Cells were added to a 96-well plate with (5,000 cells per well in 100 µL RPMI-1640 medium). Cells were treated with different concentrations (10–100 μg/mL) of 8a–8h for 48 h and then incubated with 20 μL MTT (5 mg/mL) for another 4 h at 37°C. DMSO (150 μL) was then added to each well to dissolve the formazan crystals. The absorbance of each well was read at 490 nm on a microtiter plate ELISA reader. The mean values were obtained from a minimum of three parallel experiments. IC50 values were calculated.
Background: Formazan colour is commonly taken as a measure of viable cells.

Data set [3] deals with Bcl-2, Bcl-xL and Bax. Kind of data set: Western blot, Bcl-2 family proteins. The conditions noted are these: HCT116, western blot. How it is done: In addition, the expression of apoptosis-related proteins after 8a treatment was detected by western blot. Previous studies have shown that the Bcl-2 protein family is one of the most interesting oncogene-related proteins in programmed cell death. Therefore, we analyzed the levels of Bcl-2, Bcl-xL and Bax after 24 h of treatment with different concentrations (0, 10, 20, and 40 μg/mL) 8a. […] Moreover, the phosphorylation levels of Bcl-2 and Bcl-xL increased with increasing 8a concentration.
The expression of signaling pathway-related proteins was detected by western blot analysis. Cell (1 × 10^6) were plated in 90-mm dishes and treated with 8a for 24 h. The cells were treated with NAC in the same way as in step 4.7. Resuspend the cells in Buffer A (1 mM EDTA, 1 mM PMSF, 0.28 μg/mL apotinin, 50 μg/mL leupeptin, 7 μg/mL pepstain A) and transferred to a 1 mL glass homogenizer and pull up and down 30 times in an ice bath. Cells were collected and centrifuged (1000 g × 10 min, 4 °C). The obtained supernatant and precipitate were the crude cytoplasm and mitochondria, respectively. The cytosolic fraction was transferred to an ultra-ion tube and centrifuged (100,000g × 1 hr, 4 °C), and the resulting supernatant was the purified cytosolic fraction. The mitochondrial pellet was resuspended in Buffer B (1mM EGTA, 1mM PMSF, 0.28 μg/mL apotinin, 50 μg/mL leupeptin, 7 μg/mL pepstain A), centrifuged (10,000g × 10 min, 4 °C), and repeated 3 times. The mitochondria pellet was lysed in cell lysate buffer (1% NP-40, 2 μg/mL aprotinin, 2 μg/mL leupeptin, 1mM EDTA, 1mM Na vanadate). Protein concentrations in the supernatant were determined by using a Minbio BCA protein assay kit. Protein were separated by SDS-PAGE and transferred to a PVDF membrane. The membrane was blocked, and incubated with primary detection antibodies overnight at 4 °C. After washing three times with TBS-T, the membranes were incubated with the secondary detection antibody. […]
Background: A western blot detects proteins with antibodies after separation by electrophoresis.

Values after ≈ are worked out from the molar mass of the structure shown.

One may read the cell viability as a read-out of living cells in per cent, often relative to untreated cells. A higher cell viability goes with less harm to the cells. The term IC50 denotes the concentration needed to halve the response being measured. Higher therefore signals weaker potency. `CC(C)CC(NC(=O)c1ccc2c(c1[N+](=O)[O-])C(=O)c1ccccc1C2=O)C(=O)O` (centres unmarked) [Compound 8a, N-[(9,10-dihydro-1-nitro-9,10-dioxo-2-anthracenyl)carbonyl-leucine]] came in with a cell viability in data set [1] of 39%. Moreover, in data set [2], the IC50 came out at 17.8 ± 0.03 µg/mL (≈ 43.4 µM). For the same molecule, in data set [3] (0, 10, 20, 40 μg/mL, 24 h), the Bax expression entry is on record as “increased”; the “levels of Bcl-2 and Bcl-xL” value is reported as “gradually decreased”. Moreover, the “phosphorylation levels of Bcl-2 and Bcl-xL” value in data set [3] (with increasing 8a concentration) is on record as “increased”.
